According to patent US20030228988A1, “Ozone solutions” (Otre AB, priority 2002, published 2003):
Like-named read-outs stand apart in the source and are kept apart here. Blank lines part the entries; values can stand above or below the compound they belong to.

Tests used:
[1] = Ozone stability in the presence of acetic and oxalic acid; conditions: for increase of the lifetime of the ozone (factor) compared with pure ozone solution: acid approximately 0.01M, ozone approximately 6 ppm
Experimental: The following procedure was applied in the analysis of ozone concentration. Magnetic stirrer was used to obtain a homogeneous solution. The ozone concentration, pH and temperature were registered every 30 seconds, until ozone no longer could be detected.
An aqueous ozone solution with a concentration of approximately 6 ppm was tapped directly from the ozone generator into a beaker. The ozone electrode was used to register the changes in concentration. Acetic or oxalic acid was added directly to the solution. The concentration of the acids was approximately 0.01M.

[2] = Ozone stability in the presence of different surfactants (ozone electrode); type: physicochemical; conditions: ozone approximately 6 ppm, surfactant approximately 0.1 mM, approximately the same pH
Experimental: Deionised water was used in all aqueous solutions. All experiments were made at room temperature, ˜23° C. The variation of the temperature between the different experiments was relatively small and should not have any significant effect on the outcome. All tests were made at least twice in order to verify the reproducibility. […] Magnetic stirrer was used to obtain a homogeneous solution. […] The concentration of the surfactants was approximately 0.1 mM. […] The solution was filtered to remove the formed precipitate, AgBr.

[3] = Ozone stability in the presence of different concentrations of SDS; type: physicochemical; conditions: 200 mM vs 0.1 mM SDS, ozone approximately 6 ppm
Experimental: One of the surfactants, SDS, was tested at two different concentrations: Low concentration (0.1 mM), where the surfactant exists […], and high concentration (200 mM), where the surfactant exists in the form of both micelles and linear (paraffinic) chains. […] However, in order to obtain these states the surfactant solution has to be heated.
Magnetic stirrer was used to obtain a homogeneous solution.
SDS was added directly to the aqueous ozone solution, yielding solutions having concentrations of 0.1 mM and 200 mM with respect to SDS The result is seen in FIG. 4, namely that the higher concentration of SDS increases the lifetime of ozone by a factor 5 compared with the lower concentration.

[4] = Oxidation of organic acids by ozone, 13C NMR and IR before and after ozone treatment; type: physicochemical; conditions: 0.1M acid bubbled with ozone for five hours
Experimental: The aqueous solutions of the acids were analysed using ^13C NMR and IR spectroscopy before and after treatment with ozone.
In order to verify that the organic acids had not been oxidised by ozone an additional test was made 300 ml of an aqueous solution of acid (0.1M, 30×10^−3 mol) was bubbled with ozone for five hours. The gaseous concentration of ozone was ˜100 g/m^3. The airflow was 0 2 l/minute, which gives 1.2 g ozone/h ([…]). The aqueous solutions were analysed using ^13C NMR and IR spectroscopy before and after treatment with ozone. The results are shown in FIGS. 9-12, namely that the peaks in the spectrograms of the pure acid solutions (FIGS. 9 and 11) had not changed their appearance after prolonged treatment with ozone (FIGS. 10 and 12)

effect on ozone stability [1]: positive effect on ozone stability | increase of the lifetime of the ozone (factor) compared with pure ozone solution [1]: 2
Compound: CC(=O)O [Acetic acid, acetic acid]

increase of the lifetime of ozone compared with a pure ozone solution ([2]; ~23° C.): three to four fold | increase of the lifetime of ozone (factor), higher concentration compared with the lower concentration [3]: 5
Compound: CCCCCCCCCCCCOS(=O)(=O)[O-].[Na+] [SDS, sodium dodecyl sulphate]

depletion rate of ozone relative to the depletion rate of pure ozone solution [2]: about half
Compound: CCCCCCCCCCCCO[C@@H]1O[C@H](CO)[C@@H](O[C@H]2O[C@H](CO)[C@@H](O)[C@H](O)[C@H]2O)[C@H](O)[C@H]1O [dodecyl b-D-maltoside]

effect on ozone stability ([1]; FIGS. 5 and 6): positive effect on ozone stability | increase of the lifetime of the ozone (factor) compared with pure ozone solution [1]: 2 | decomposition / reaction of the acid after treatment with ozone (13C NMR, IR) [4]: does not react with ozone
Compound: O=C(O)C(=O)O [oxalic acid]
